Consider two compounds from ChEMBL document CHEMBL1127383, “Improved binding affinity for cyclophilin A by a cyclosporin derivative singly modified at its effector domain” (J Med Chem, 1994).

The target of test [1] is Peptidyl-prolyl cis-trans isomerase A (Homo sapiens, UniProt P62937). As to the kind of experiment: Compound was evaluated for in vitro binding affinity to cyclophilin A (CyP-A).
Test [2] can be described thus: Compound was evaluated for in vitro immunosuppressive activity in the interleukin-2 reporter gene assay (IL2-RG). Type of test: functional.
For the next test, the species on record is Mus musculus. In words: Compound was evaluated for in vitro immunosuppressive activity in the mouse mixed lymphocyte reaction (MLR-M). The format is functional.

Sequence of Peptidyl-prolyl cis-trans isomerase A (P62937 whole entry): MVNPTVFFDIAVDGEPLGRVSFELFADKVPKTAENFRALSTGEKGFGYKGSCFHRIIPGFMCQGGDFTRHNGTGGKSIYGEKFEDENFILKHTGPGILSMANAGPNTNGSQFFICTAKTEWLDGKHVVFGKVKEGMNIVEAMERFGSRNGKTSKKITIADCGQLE

Consider `C/C=C/C[C@@H](C)[C@@H](O)[C@H]1C(=O)NC(CC)C(=O)N(C)CC(=O)N(C)[C@@H](C[C@@H](C)CC)C(=O)N[C@@H](C(C)C)C(=O)N(C)[C@@H](CC(C)C)C(=O)N[C@@H](C)C(=O)N[C@H](C)C(=O)N(C)[C@@H](CC(C)C)C(=O)N(C)[C@@H](CC(C)C)C(=O)N(C)C(C(C)C)C(=O)N1C` (single isomer, unassigned), for which the IC50 in test [1] is 2.3 nM; in test [2] it was 17 nM; in the test listed under Mus musculus, 45 nM.
On the same counts, the results for `C/C=C/C[C@@H](C)[C@@H](O)[C@H]1C(=O)N[C@@H](CC)C(=O)N(C)CC(=O)N(C)[C@@H](C[C@@H](C)CC)C(=O)N[C@@H](C(C)C)C(=O)N(C)[C@@H](CC(C)C)C(=O)N[C@@H](C)C(=O)N[C@H](C)C(=O)N(C)[C@@H](CC(C)C)C(=O)N(C)[C@@H](CC(C)C)C(=O)N(C)[C@@H](C(C)C)C(=O)N1C` are 16 nM, 14 nM and 46 nM.

As usually defined, the IC50 is the point on the concentration scale where inhibition reaches its midpoint.
